Laboratory results taken from ChEMBL document CHEMBL4266026, “Bisleuconothines B-D, Modified Eburnane-Aspidosperma Bisindole Alkaloids from Leuconotis griffithii” (J Nat Prod, 2018).

Test system: A549
Experiment: Cytotoxicity against human A549 cells assessed as cell growth inhibition by MTT assay
Assay type: functional, cell-based

Compound | IC50
CC[C@]12C=C(c3ccc(O)c4c3N[C@@H]3CC[C@@]5(CC)CCCN6CC[C@@]43[C@H]65)N3c4ccccc4C(=O)[C@]34CCN(CCC1)[C@H]24 | 33.6 µM
CC[C@@]12CCCN3CC[C@]4(c5c(ccc6c5O[C@@]57[C@@H]8N9CCC[C@]8(CC)C[C@@H]6N5c5ccccc5[C@]7(O)CC9)N(C=O)[C@@H]4CC1)[C@H]32 | 36.1 µM
CC[C@@]12CCCN3CC[C@]4(c5c(O)ccc([C@H]6C[C@@]7(CC)CCCN8CC[C@]9(C(=O)c%10ccccc%10N69)[C@H]87)c5N[C@@H]4CC1)[C@H]32 | 20.1 µM
